Assay results as given in patent US20110059948A1, “QUINOLINE, NAPHTHALENE AND CONFORMATIONALLY CONSTRAINED QUINOLINE OR NAPHTHALENE DERIVATIVES AS ANTI-MYCOBACTERIAL AGENTS” (priority 2008, published 2011).

What was measured:
[1] = tested on: clinical isolates resistant to one or more standard antitubercular drugs (MDR-TB strains); test: microbe, parasite or virus in culture; assay type: cell-based, Mycobacterium tuberculosis; settings: for MIC M. tuberculosis Resistant (n = 10): clinical isolates, n = 10 strains tested
[2] = tested on: clinical isolate MDR (BTB 08-072); test: microbe, parasite or virus in culture; assay type: cell-based, Mycobacterium tuberculosis; settings: for MIC against MDR-TB (BTB 08-072), strain resistant to all front line drugs: agar dilution, Middlebrook 7H10; for MIC: Mycobacterium tuberculosis, read-out: MIC against MDR-TB (BTB 08-072), strain resistant to all front line drugs

Structure (SMILES)	MIC M. tuberculosis Resistant (n = 10) [1] [µg/mL]	MIC against MDR-TB (BTB 08-072), strain resistant to all front line drugs [2] [µg/mL]	MIC ([1]; Mycobacterium tuberculosis, read-out: MIC M. tuberculosis Resistant (n = 10)) [µg/mL]	MIC [2] [µg/mL]
CC(O)c1cc(F)ccc1Oc1nc2ccc(NC(=O)Nc3cccc([N+](=O)[O-])c3)cc2cc1Cc1ccccc1 (centres unmarked) [Example 31]	<6.25	>6.25		
NNC(=O)c1ccncc1 [Isoniazid, reference compound]			> 16	> 16
CC(c1cc(F)ccc1Oc1nc2ccc(-n3cc(-c4ccccc4)nn3)cc2cc1Cc1ccccc1)n1ccnc1 (centres unmarked) [Example 23]	<6.25	>6.25		
COc1cccc(NC(=O)Nc2ccc3nc(Oc4ccc(F)cc4C(C)O)c(Cc4ccccc4)cc3c2)c1 (centres unmarked) [Example 26]	<4.0	>4.0		
CO[C@H]1/C=C/O[C@@]2(C)Oc3c(C)c(O)c4c(O)c(c(/C=N/N5CCN(C)CC5)c(O)c4c3C2=O)NC(=O)/C(C)=C\C=C\[C@H](C)[C@H](O)[C@@H](C)[C@@H](O)[C@@H](C)[C@H](OC(C)=O)[C@@H]1C [Refampin, Rifampicin, reference compound]				> 16
ON=C1c2ccccc2-c2c1c(N1CCN(c3ccccn3)CC1)nc1ccc(Br)cc21 [Example 134]	<6.25	>6.25		
